Test results reported in patent US8513289B2, “P38 kinase inhibiting agents” (Merck Sharp & Dohme Corp., priority 2009, dated 2013).
pIC50: −log10 of the molar value.

Assays:
[1] = target: T1, p38-α (Homo sapiens, UniProt Q16539); test: p38 kinase assay, p38-α with peptide substrate (Caliper LabChip); format: biochemical; conditions: read-out: IC50 p38a*peptide
T1 construct: purchased Millipore
Procedure: Alternatively, p38 kinase assays were performed in a reaction volume of 70 µL in a 384-well plate, at 30° for […] under the following conditions: 50 mM Hepes, pH 7.4, 10 mM MgCl2, 1 mg/ml FA Free BSA, 1 mM DTT, 10 μM ATP, 10 μM p38 peptide [Caliper Life Sciences FL-Peptide 8 (5-FAM-IPTSPITTTYFFEKKK-COOH)] and 5.7 nM p38-α (Millipore), or 14.3 nM unactivated MAPKAP kinase-2, 0.18 nM p38-α (Millipore) and 2 uM RSK peptide [Caliper Life Sciences FL-Peptide 11 (5-FAM-KKLNRTLSVA-COOH)]. Serial dilutions of compounds were added to each reaction in 700 nL DMSO. 700 nL of DMSO was added to the control wells of the reaction plate as the no inhibitor control for each inhibitor titration. The reaction was terminated by the addition of 15 μL of a 100 mM EDTA. Product formation was analyzed using the Caliper LabChip 3000. The Separation buffer contained 100 mM HEPES pH 7.5, 0.015% Brij-35, 2.5% Coating Reagent #3 (Caliper Life Sciences) and 10 mM EDTA. Calculation of the substrate product ratios are performed using the HTS Well Analyzer software provided by Caliper Life Sciences and the percent inhibition at each compound concentration is determined.

[2] = system: hWB; test: IC50 hWB (TNF-α release assay); format: cell-based; conditions: Homo sapiens

T1 sequence (Q16539 whole entry): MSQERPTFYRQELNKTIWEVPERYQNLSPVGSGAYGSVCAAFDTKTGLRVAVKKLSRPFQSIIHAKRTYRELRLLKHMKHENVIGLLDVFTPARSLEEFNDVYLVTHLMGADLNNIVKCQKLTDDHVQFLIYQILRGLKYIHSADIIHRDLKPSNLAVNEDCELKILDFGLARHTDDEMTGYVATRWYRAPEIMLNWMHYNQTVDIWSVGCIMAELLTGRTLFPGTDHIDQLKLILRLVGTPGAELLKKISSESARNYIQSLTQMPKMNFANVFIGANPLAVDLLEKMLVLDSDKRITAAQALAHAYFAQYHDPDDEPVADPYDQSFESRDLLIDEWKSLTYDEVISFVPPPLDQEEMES

Row | Compound | pIC50 [1] | pIC50 [2]
1 | Cc1nnc(CNC(=O)c2cc(C(=O)c3c(F)cc(F)cc3F)c[nH]2)s1 [Example 1, N-[(5-methyl-1,3,4-thiadiazol-2-yl)methyl]-4-(2,4,6-trifluorobenzoyl)-1-H-pyrrole-2-carboxamide] | 6.78 | 6.33
2 | O=C(NCc1nnc(-c2ccccc2)s1)c1cc(C(=O)c2c(F)cc(F)cc2F)c[nH]1 [Example 7, N-[(5-phenyl-1,3,4-thiadiazol-2-yl)methyl]-4-(2,4,6-trifluorobenzoyl)-1H-pyrrole-2-carboxamide] | 7.38 | 5.36
3 | O=C(NCc1nnc(-c2ccc(F)cc2)s1)c1cc(C(=O)c2c(F)cc(F)cc2F)c[nH]1 [Example 8, N-{[5-(4-fluorophenyl)-1,3,4-thiadiazol-2-yl]methyl}-4-(2,4,6-trifluorobenzoyl)-1H-pyrrole-2-carboxamide] | 7.30 | 6.00
4 | O=C(NCc1nnc(-c2cccc(F)c2)s1)c1cc(C(=O)c2c(F)cc(F)cc2F)c[nH]1 [Example 9, N {[5-(3-fluorophenyl)-1,3,4-thiadiazol-2-yl]methyl}-4-(2,4,6-trifluorobenzoyl)-1H-pyrrole-2-carboxamide] | 6.34 | 5.46
5 | COc1ccc(-c2nnc(CNC(=O)c3cc(C(=O)c4c(F)cc(F)cc4F)c[nH]3)s2)cc1 [Example 10, N-{[5-(4-methoxyphenyl)-1,3,4-thiadiazol-2-yl]methyl}-4-(2,4,6-trifluorobenzoyl)-1H-pyrrole-2-carboxamide] | 7.51 | –
6 | O=C(NCc1nnc(-c2c(F)cccc2F)s1)c1cc(C(=O)c2c(F)cc(F)cc2F)c[nH]1 [Example 11, N-{[5-(2,6-difluorophenyl)-1,3,4-tbiadiazol-2-yl]methyl}-4-(2,4,6-trifluorobenzoyl)-1H-pyrrole-2-carboxamide] | 6.56 | 5.55
7 | O=C(NCc1nnc(-c2ccccn2)s1)c1cc(C(=O)c2c(F)cc(F)cc2F)c[nH]1 [Example 12, N-[(5-pyridin-2-yl-1,3,4-thiadiazol-2-yl)methyl]-4-(2,4,6-trifluorobenzoyl)-1H-pyrrole-2-carboxamide] | 7.18 | 6.24
8 | O=C(NCc1nnc(-c2cccnc2)s1)c1cc(C(=O)c2c(F)cc(F)cc2F)c[nH]1 [Example 13, N-[(5-pyridin-3-yl-1,3,4-thiadiazol-2-yl)methyl]-4-(2,4,6-trifluorobenzoyl)-1H-pyrrole-2-carboxamide] | 7.40 | 6.13
9 | CCOc1ncccc1-c1nnc(CNC(=O)c2cc(C(=O)c3c(F)cc(F)cc3F)c[nH]2)s1 [Example 16, N-{[5-(2-ethoxypyridin-3-yl)-1,3,4-thiadiazol-2-yl]methyl}-4-(2,4,6-trifluorobenzoyl)-1H-pyrrole-2-carboxamide] | 6.87 | –
10 | COc1cccc(-c2nnc(CNC(=O)c3cc(C(=O)c4c(F)cc(F)cc4F)c[nH]3)s2)n1 [Example 18, N-{[5-(6-methoxypyridin-2-yl)-1,3,4-thiadiazol-2-yl]methyl}-4-(2,4,6-trifluorobenzoyl)-1H-pyrrole-2-carboxamide] | 7.03 | –
11 | COc1cc(-c2nnc(CNC(=O)c3cc(C(=O)c4c(F)cc(F)cc4F)c[nH]3)s2)ccn1 [Example 19, N-{[5-(2-methoxypyridin-4-yl)-1,3,4-thiadiazol-2-yl]methyl}-4-(2,4,6-trifluorobenzoyl)-1H-pyrrole-2-carboxamide] | 7.07 | –
12 | O=C(NCc1nnc(-c2cc(C(F)(F)F)n[nH]2)s1)c1cc(C(=O)c2c(F)cc(F)cc2F)c[nH]1 [Example 27, 4-(2,4,6-trifluorobenzoyl)-N-({5-[3-(trifluoromethyl)-1H-pyrazol-5-yl]-1,3,4-thiadiazol-2-yl}methyl)-1H-pyrrole-2-carboxamide] | 5.85 | –
13 | O=C(NCc1nnc(-c2[nH]nc3c2CCC3)s1)c1cc(C(=O)c2c(F)cc(F)cc2F)c[nH]1 [Example 31, N-{[5-(2,4,5,6-tetrahydrocyclopenta[c]pyrazol-3-yl)-1,3,4-thiadiazol-2-yl]methyl}-4-(2,4,6-trifluorobenzoyl)-1H-pyrrole-2-carboxamide] | 7.44 | –
14 | O=C(NCc1nnc(-c2ccc(=O)[nH]c2)s1)c1cc(C(=O)c2c(F)cc(F)cc2F)c[nH]1 [Example 36, N-{[5-(6-oxo-1,6-dihydropyridin-3-yl)-1,3,4-thiadiazol-2-yl]methyl}-4-(2,4,6-trifluorobenzoyl)-1H-pyrrole-2-carboxamide] | 7.15 | –
15 | O=C(NCc1nnc(-c2cccc(=O)[nH]2)s1)c1cc(C(=O)c2c(F)cc(F)cc2F)c[nH]1 [Example 37, N-{[5-(6-oxo-1,6-dihydropyridin-2-yl)-1,3,4-thiadiazol-2-yl]methyl}-4-(2,4,6-trifluorobenzoyl)-1H-pyrrole-2-carboxamide] | 6.76 | –
16 | O=C(NCc1nnc(-c2cc[nH]c(=O)c2)s1)c1cc(C(=O)c2c(F)cc(F)cc2F)c[nH]1 [Example 38, N-{[5-(2-oxo-1,2-dihydropyridin-4-yl)-1,3,4-thiadiazol-2-yl]methyl}-4-(2,4,6-trifluorobenzoyl)-1H-pyrrole-2-carboxamide] | 7.57 | –
17 | Cc1nnc(CNC(=O)c2cc(C(=O)c3ccc(F)cc3F)c[nH]2)s1 [Example 39, 4-(2,4-difluorobenzoyl)-N-[(5-methyl-1,3,4-thiadiazol-2-yl)methyl]-1H-pyrrole-2-carboxamide] | 6.65 | –
18 | Cc1nnc(CNC(=O)c2cc(C(=O)c3c(F)cccc3F)c[nH]2)s1 [Example 40, 4-(2,6-difluorobenzoyl)-N-[(5-methyl-1,3,4-thiadiazol-2-yl)methyl]-1H-pyrrole-2-carboxamide] | 6.83 | –
19 | O=C(NCc1nnc(-c2ccccn2)s1)c1cc(Cc2c(F)cc(F)cc2F)c[nH]1 [Example 44, N-[(5-pyridin-2-yl-1,3,4-thiadiazol-2-yl)methyl]-4-(2,4,6-trifluorobenzyl)-1H-pyrrole-2-carboxamide] | 6.26 | –

Further lines, results first:

Row | pIC50 [1] | pIC50 [2] | Compound
20 | 6.36 | 5.37 | CCCCc1nnc(CNC(=O)c2cc(C(=O)c3c(F)cc(F)cc3F)c[nH]2)s1 [Example 2, N-[(5-butyl-1,3,4-thiadiazol-2-yl)-methyl]-4-(2,4,6-trifluorobenzoyl)-1-H-pyrrole-2-carboxamide]
21 | 6.32 | – | CC(C)c1nnc(CNC(=O)c2cc(C(=O)c3c(F)cc(F)cc3F)c[nH]2)s1 [Example 3, N-[(5-isopropyl-1,3,4-thiadiazol-2-yl)methyl]-4-(2,4,6-trifluorobenzoyl)-1-H-pyrrole-2-carboxamide]
22 | 7.14 | 6.48 | O=C(NCc1nnc(C2CC2)s1)c1cc(C(=O)c2c(F)cc(F)cc2F)c[nH]1 [Example 4, N-[(5-cyclopropyl-1,3,4-thiadiazol-2-yl)methyl]-4-(2,4,6-trifluorobenzoyl)-1H-pyrrole-2-carboxamide]
23 | 6.22 | – | CC(C)(C)c1nnc(CNC(=O)c2cc(C(=O)c3c(F)cc(F)cc3F)c[nH]2)s1 [Example 5, N-[(5-tert-butyl-1,3,4-thiadiazol-2-yl)methyl]-4-(2,4,6-trifluorobenzoyl)-1H-pyrrole-2-carboxamide]
24 | 5.82 | 5.54 | O=C(NCc1nnc(C2CCCC2)s1)c1cc(C(=O)c2c(F)cc(F)cc2F)c[nH]1 [Example 6, N-[(5-cyclopentyl-1,3,4-thiadiazol-2-yl)methyl]-4-(2,4,6-trifluorobenzoyl)-1H-pyrrole-2-carboxamide]
25 | 6.31 | – | O=C(NCc1nnc(C2CCC2)s1)c1cc(C(=O)c2c(F)cc(F)cc2F)c[nH]1 [Example 22, N-[(5-cyclobutyl-1,3,4-thiadiazol-2-yl)methyl]-4-(2,4,6-trifluorobenzoyl)-1H-pyrrole-2-carboxamide]
26 | 6.08 | – | CC1(c2nnc(CNC(=O)c3cc(C(=O)c4c(F)cc(F)cc4F)c[nH]3)s2)CC1 [Example 23, N-{[5-(1-methylcyclopropyl)-1,3,4-thiadiazol-2-yl]methyl}-4-(2,4,6-trifluorobenzoyl)-1H-pyrrole-2-carboxamide]
27 | 5.99 | – | CCC(C)c1nnc(CNC(=O)c2cc(C(=O)c3c(F)cc(F)cc3F)c[nH]2)s1 (stereo not shown) [Example 24, N-[(5-sec-butyl-1,3,4-thiadiazol-2-yl)methyl]-4-(2,4,6-trifluorobenzoyl)-1H-pyrrole-2-carboxamide]
28 | 6.20 | – | O=C(NCc1nnc(-c2csnn2)s1)c1cc(C(=O)c2c(F)cc(F)cc2F)c[nH]1 [Example 30, N-{[5-(1,2,3-thiadiazol-4-yl)-1,3,4-thiadiazol-2-yl]methyl}-4-(2,4,6-trifluorobenzoyl)-1H-pyrrole-2-carboxamide]
29 | 7.45 | – | Cc1cc(-c2nnc(CNC(=O)c3cc(C(=O)c4c(F)cc(F)cc4F)c[nH]3)s2)nn1C [Example 33, N-{[5-(1,5-dimethyl-1H-pyrazol-3-yl)-1,3,4-thiadiazol-2-yl]methyl}-4-(2,4,6-trifluorobenzoyl)-1H-pyrrole-2-carboxamide]
30 | 6.74 | – | O=C(NCc1nnc(-c2cn[nH]n2)s1)c1cc(C(=O)c2c(F)cc(F)cc2F)c[nH]1 [Example 34, N-{[5-(2H-1,2,3-triazol-4-yl)-1,3,4-thiadiazol-2-yl]methyl}-4-(2,4,6-trifluorobenzoyl)-1,1-pyrrole-2-carboxamide]
